Source: ChEMBL document CHEMBL4428066, “Small Molecule Reversible Inhibitors of Bruton's Tyrosine Kinase (BTK): Structure-Activity Relationships Leading to the Identification of 7-(2-Hydroxypropan-2-yl)-4-[2-methyl-3-(4-oxo-3,4-dihydroquinazolin-3-yl)phenyl]-9H-carbazole-1-carboxamide (BMS-935177)” (J Med Chem, 2016)
Converted amounts (≈) assume the structure as drawn. The source made the active and inactive calls. The rule behind the calls is not given here.

Experiments:
[1] = target: Receptor tyrosine-protein kinase erbB-4 (Homo sapiens, UniProt Q15303); test: Inhibition of partial length human HER4 expressed in bacterial system
[2] = target: Cytoplasmic tyrosine-protein kinase BMX (Homo sapiens, UniProt P51813); test: Inhibition of full length human BMX expressed in bacterial system
[3] = AUC in Sprague-Dawley rat plasma at 5 mg/kg, administered through oral gavage by LC/MS/MS analysis; type: ADME, organism-based
[4] = target: Tyrosine-protein kinase Tec (Homo sapiens, UniProt P42680); test: Inhibition of partial length human TEC expressed in bacterial system
[5] = Oral bioavailability in Beagle dog at 2 mg/kg after 0.25 to 48 hrs by LC/MS/MS analysis; type: ADME, organism-based, Canis lupus familiaris; conditions: in vivo
[6] = target: Proto-oncogene tyrosine-protein kinase Src (Homo sapiens, UniProt P12931); test: Inhibition of partial length human SRC expressed in bacterial system
Sequence of Proto-oncogene tyrosine-protein kinase Src (P12931 2-536 limits assumed): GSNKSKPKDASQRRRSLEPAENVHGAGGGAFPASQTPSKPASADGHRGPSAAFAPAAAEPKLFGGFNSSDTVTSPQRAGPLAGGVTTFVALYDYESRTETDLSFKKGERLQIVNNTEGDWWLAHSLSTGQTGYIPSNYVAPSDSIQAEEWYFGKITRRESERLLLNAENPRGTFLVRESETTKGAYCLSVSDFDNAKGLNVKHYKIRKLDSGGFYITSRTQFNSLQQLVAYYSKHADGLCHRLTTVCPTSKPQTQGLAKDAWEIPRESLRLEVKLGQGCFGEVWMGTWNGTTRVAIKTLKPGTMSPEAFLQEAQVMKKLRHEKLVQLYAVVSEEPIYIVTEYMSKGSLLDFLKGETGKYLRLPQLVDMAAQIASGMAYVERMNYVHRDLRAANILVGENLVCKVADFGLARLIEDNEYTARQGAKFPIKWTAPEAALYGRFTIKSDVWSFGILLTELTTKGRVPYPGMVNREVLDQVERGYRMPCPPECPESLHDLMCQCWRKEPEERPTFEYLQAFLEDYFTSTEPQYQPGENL

Mus musculus [7] = test: Antiarthritic activity in Balb/C mouse model of anti-collagen antibody-induced arthritis assessed as reduction in paw clinical scores at dosed orally daily for 3 days followed by LPS challenge; type: functional, organism-based
[8] = Half life in cynomolgus monkey plasma at 2 mg/kg, iv through bolus administration after 0.167 to 48 hrs by LC/MS/MS analysis; type: ADME, organism-based, Macaca fascicularis
[9] = Passive permeability from basolateral to apical side in human Caco2 cells; type: ADME, cell-based; conditions: Caco-2, read-out: permeability
[10] = target: Tyrosine-protein kinase JAK2 (Homo sapiens, UniProt O60674); test: Inhibition of partial length human JAK2 expressed in bacterial system
Sequence of Tyrosine-protein kinase JAK2 (O60674 whole entry): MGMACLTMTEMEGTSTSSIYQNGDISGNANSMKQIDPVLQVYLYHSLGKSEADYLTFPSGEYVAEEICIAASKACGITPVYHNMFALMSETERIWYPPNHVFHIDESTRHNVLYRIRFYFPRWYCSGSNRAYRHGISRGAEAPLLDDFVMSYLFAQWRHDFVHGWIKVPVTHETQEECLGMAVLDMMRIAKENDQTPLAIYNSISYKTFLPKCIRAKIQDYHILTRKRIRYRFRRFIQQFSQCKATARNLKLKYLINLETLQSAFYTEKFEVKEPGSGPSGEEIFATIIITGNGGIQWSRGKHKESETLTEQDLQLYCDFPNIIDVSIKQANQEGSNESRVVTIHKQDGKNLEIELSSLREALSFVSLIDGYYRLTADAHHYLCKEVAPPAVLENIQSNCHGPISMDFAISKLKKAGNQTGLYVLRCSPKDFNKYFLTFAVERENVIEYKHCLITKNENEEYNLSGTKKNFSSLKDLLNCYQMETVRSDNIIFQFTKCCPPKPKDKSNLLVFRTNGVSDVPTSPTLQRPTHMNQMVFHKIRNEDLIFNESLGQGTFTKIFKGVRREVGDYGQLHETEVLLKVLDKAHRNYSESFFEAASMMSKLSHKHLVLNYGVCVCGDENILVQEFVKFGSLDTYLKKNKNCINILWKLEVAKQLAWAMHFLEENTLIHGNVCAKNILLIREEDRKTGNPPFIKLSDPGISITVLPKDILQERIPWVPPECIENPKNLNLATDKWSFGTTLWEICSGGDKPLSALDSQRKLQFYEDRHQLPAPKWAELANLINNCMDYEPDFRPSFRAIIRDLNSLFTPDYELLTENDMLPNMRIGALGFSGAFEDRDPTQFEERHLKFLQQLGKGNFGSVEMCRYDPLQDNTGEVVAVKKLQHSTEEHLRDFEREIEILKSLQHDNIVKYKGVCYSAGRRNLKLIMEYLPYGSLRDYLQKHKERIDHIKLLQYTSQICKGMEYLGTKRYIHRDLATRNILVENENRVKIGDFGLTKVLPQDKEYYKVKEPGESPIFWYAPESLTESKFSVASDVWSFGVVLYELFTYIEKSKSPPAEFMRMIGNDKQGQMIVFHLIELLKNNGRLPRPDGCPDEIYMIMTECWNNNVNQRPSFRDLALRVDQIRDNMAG

Cytochrome P450 2B6 = Cytochrome P450 2B6 (Homo sapiens, UniProt P20813); test: Inhibition of human liver microsomes CYP2B6 after 30 mins in presence of NADPH; type: ADME
Sequence of Cytochrome P450 2B6 (P20813 whole entry): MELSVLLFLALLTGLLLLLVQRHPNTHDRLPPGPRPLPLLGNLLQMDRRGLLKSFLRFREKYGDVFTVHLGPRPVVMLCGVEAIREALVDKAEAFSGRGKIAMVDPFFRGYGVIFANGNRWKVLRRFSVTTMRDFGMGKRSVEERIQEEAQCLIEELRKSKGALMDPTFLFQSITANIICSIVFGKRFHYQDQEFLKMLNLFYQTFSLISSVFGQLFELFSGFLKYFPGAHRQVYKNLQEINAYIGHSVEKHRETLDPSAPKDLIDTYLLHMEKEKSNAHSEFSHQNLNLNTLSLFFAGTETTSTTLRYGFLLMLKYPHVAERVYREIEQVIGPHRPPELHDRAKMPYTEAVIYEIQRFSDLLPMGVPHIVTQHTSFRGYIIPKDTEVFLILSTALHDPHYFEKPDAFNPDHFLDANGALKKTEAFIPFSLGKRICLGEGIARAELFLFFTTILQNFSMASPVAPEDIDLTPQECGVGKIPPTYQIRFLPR

[11] = target: Proto-oncogene tyrosine-protein kinase receptor Ret (Homo sapiens, UniProt P07949); test: Inhibition of partial length human RET expressed in bacterial system
[12] = AUC in mouse plasma at 5 mg/kg, administered through oral gavage after 0.25 to 24 hrs by LC/MS/MS analysis; type: ADME, organism-based; set-up: time 0.25-24 hr, dose 5 mg/kg, route oral
[13] = Oral bioavailability in cynomolgus monkey at 2 mg/kg after 0.25 to 48 hrs by LC/MS/MS analysis; type: ADME, organism-based, Macaca fascicularis; conditions: in vivo
[14] = Protein binding in human serum; type: ADME, cell-free; conditions: read-out: PB (converted)
[15] = Solubility of the compound in fed state simulated intestinal fluid; type: physicochemical
[16] = Tmax in cynomolgus monkey plasma at 2 mg/kg, administered through oral gavage after 0.25 to 48 hrs by LC/MS/MS analysis; type: ADME, organism-based, Macaca fascicularis
Cytochrome P450 3A4 = Cytochrome P450 3A4 (Homo sapiens, UniProt P08684); test: Inhibition of human liver microsomes CYP3A4 after 30 mins in presence of NADPH; type: ADME
Sequence of Cytochrome P450 3A4 (P08684 whole entry): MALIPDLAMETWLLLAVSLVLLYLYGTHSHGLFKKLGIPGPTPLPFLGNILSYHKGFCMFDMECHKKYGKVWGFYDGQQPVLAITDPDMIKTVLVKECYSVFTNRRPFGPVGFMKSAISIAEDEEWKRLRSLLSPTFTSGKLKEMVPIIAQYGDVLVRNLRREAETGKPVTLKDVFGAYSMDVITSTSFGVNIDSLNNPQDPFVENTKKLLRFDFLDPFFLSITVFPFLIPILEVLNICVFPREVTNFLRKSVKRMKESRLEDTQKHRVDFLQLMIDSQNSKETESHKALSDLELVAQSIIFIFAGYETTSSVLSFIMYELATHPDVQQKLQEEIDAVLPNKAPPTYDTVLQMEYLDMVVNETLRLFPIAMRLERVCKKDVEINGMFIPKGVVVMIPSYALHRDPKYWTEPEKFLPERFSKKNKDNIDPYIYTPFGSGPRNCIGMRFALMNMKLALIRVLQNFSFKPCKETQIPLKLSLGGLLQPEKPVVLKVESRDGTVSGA

Mus musculus [17] = test: Antiarthritic activity in DBA/1 mouse model of collagen-induced arthritis inflammation assessed as inhibition of bone resorption end points dosed daily and orally beginning on day of primary immunization by micro-CT analysis; type: functional, organism-based
[18] = Cmax in mouse plasma at 5 mg/kg, administered through oral gavage after 0.25 to 24 hrs by LC/MS/MS analysis; type: ADME, organism-based; set-up: dose 5 mg/kg, route oral
[19] = Oral bioavailability in Sprague-Dawley rat at 5 mg/kg by LC/MS/MS analysis; type: ADME, organism-based; conditions: in vivo
Mus musculus [20] = test: Antiarthritic activity in DBA/1 mouse model of collagen-induced arthritis inflammation assessed reduction in disease severity at 20 to 30 mg/kg, po dosing daily starting on day of primary immunization; type: functional; set-up: scale not given: the % may be the effect or the level left
[21] = Volume of distribution in steady state in Beagle dog at 2 mg/kg, iv through bolus administration after 0.167 to 48 hrs by LC/MS/MS analysis; type: ADME, organism-based, Canis lupus familiaris; conditions: in vivo, read-out: Vdss
[22] = Plasma clearance in Sprague-Dawley rat at 2 mg/kg, iv through bolus administration by LC/MS/MS analysis; type: ADME, organism-based
[23] = Protein binding in mouse serum; type: ADME, cell-free; conditions: read-out: PB
Mus musculus [24] = test: Antiarthritic activity in DBA/1 mouse model of collagen-induced arthritis inflammation assessed as presence of smooth bone surface at 20 mg/kg, po dosed daily beginning on day of primary immunization by microcomputed tomography imaging analysis; type: functional, organism-based
[25] = Permeability of the compound at pH 5.5 by PAMPA; type: ADME; conditions: read-out: permeability
[26] = Plasma clearance in mouse at 2 mg/kg, iv through bolus administration after 0.05 to 24 hrs by LC/MS/MS analysis; type: ADME, organism-based
Mus musculus [27] = test: Antiarthritic activity in DBA/1 mouse model of collagen-induced arthritis inflammation assessed as protection against fusion of small bones dosed daily and orally beginning on day of primary immunization by microcomputed tomography imaging analysis; type: functional, organism-based
Cytochrome P450 1A2 = Cytochrome P450 1A2 (Homo sapiens, UniProt P05177); test: Inhibition of human liver microsomes CYP1A2 after 30 mins in presence of NADPH; type: ADME
Sequence of Cytochrome P450 1A2 (P05177 whole entry): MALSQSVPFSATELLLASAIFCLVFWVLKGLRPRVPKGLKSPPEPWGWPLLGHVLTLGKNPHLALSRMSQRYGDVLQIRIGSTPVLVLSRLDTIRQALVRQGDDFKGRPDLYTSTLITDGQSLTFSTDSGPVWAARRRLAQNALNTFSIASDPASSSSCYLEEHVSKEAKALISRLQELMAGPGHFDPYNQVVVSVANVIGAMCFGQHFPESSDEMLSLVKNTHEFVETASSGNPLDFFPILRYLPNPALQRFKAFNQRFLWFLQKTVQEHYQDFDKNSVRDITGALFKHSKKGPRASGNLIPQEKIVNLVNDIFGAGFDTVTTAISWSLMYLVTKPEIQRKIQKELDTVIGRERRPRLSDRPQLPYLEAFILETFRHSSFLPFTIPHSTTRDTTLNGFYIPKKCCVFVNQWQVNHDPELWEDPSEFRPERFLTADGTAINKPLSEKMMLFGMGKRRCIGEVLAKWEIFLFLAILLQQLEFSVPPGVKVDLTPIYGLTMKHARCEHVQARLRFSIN

[28] = Oral bioavailability in mouse at 5 mg/kg after 0.25 to 24 hrs by LC/MS/MS analysis; type: ADME, organism-based; conditions: in vivo
Mus musculus [29] = test: Antiarthritic activity in po dosed CIA DBA/1 mouse model assessed as reduction of disease severity after 21 days; type: functional, organism-based
Mus musculus [30] = test: Antiarthritic activity in DBA/1 mouse model of collagen-induced arthritis inflammation assessed reduction in incidence of clinically evident disease dosed daily and orally beginning on day of primary immunization; type: functional, organism-based
Mus musculus [31] = test: Antiarthritic activity in Balb/C mouse model of anti-collagen antibody-induced arthritis assessed as reduction in paw clinical scores at 30 mg/kg, po dosed daily for 3 days followed by LPS challenge; type: functional, organism-based
Salmonella typhimurium = test: Mutagenic activity in Salmonella typhimurium by AMES test; type: toxicity, organism-based; conditions: salmonella enterica subsp. enterica serovar typhimurium
[32] = Permeability of the compound at pH 7.4 by PAMPA; type: ADME; conditions: read-out: permeability
Mus musculus [33] = test: Antiarthritic activity in DBA/1 mouse model of collagen-induced arthritis inflammation assessed as protection against woven porous bones dosed daily and orally beginning on day of primary immunization by microcomputed tomography imaging analysis; type: functional, organism-based
[34] = Passive permeability from apical to basolateral side in human Caco2 cells; type: ADME, cell-based; conditions: Caco-2, read-out: permeability
[35] = target: Tyrosine-protein kinase Lck (Homo sapiens, UniProt P06239); test: Inhibition of partial length human LCK expressed in bacterial system
Sequence of Tyrosine-protein kinase Lck (P06239 whole entry): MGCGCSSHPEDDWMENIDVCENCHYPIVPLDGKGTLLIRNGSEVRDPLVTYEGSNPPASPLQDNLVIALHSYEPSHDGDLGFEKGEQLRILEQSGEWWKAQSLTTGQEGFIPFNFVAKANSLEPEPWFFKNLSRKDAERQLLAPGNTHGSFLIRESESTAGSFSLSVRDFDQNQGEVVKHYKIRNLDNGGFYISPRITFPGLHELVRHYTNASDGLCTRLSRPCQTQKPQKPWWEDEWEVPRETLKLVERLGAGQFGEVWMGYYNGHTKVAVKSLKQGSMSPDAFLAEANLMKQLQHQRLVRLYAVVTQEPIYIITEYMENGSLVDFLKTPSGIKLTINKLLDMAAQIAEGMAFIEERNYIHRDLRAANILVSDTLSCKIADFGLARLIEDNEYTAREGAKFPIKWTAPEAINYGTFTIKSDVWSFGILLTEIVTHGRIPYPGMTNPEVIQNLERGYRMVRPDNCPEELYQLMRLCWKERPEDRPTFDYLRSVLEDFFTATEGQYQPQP

[36] = Solubility of the compound in fasted state simulated intestinal fluid; type: physicochemical
Mus musculus [37] = test: Antiarthritic activity in DBA/1 mouse model of collagen-induced arthritis inflammation assessed as protection against bone mass loss dosed daily and orally beginning on day of primary immunization by microcomputed tomography imaging analysis; type: functional, organism-based
[38] = target: Tyrosine-protein kinase TXK (Homo sapiens, UniProt P42681); test: Inhibition of partial length human TXK expressed in bacterial system
Sequence of Tyrosine-protein kinase TXK (P42681 whole entry): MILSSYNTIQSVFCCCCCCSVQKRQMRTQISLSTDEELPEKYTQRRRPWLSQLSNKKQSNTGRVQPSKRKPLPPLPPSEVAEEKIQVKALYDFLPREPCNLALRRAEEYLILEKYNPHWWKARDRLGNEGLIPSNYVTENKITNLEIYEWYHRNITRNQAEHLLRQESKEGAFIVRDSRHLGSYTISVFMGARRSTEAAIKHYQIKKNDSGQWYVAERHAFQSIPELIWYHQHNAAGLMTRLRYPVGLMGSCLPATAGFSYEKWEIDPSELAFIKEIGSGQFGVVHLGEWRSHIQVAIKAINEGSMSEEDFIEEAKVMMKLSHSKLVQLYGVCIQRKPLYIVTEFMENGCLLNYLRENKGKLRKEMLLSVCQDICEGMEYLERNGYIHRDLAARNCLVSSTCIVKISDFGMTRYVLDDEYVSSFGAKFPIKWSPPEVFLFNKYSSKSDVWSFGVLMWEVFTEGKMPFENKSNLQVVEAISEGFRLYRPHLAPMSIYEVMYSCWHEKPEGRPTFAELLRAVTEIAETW

[39] = AUC in Beagle dog plasma at 2 mg/kg, administered through oral gavage after 0.25 to 48 hrs by LC/MS/MS analysis; type: ADME, organism-based, Canis lupus familiaris; set-up: time 0.25-48 hr, dose 2 mg/kg, route oral
[40] = target: High affinity nerve growth factor receptor (Homo sapiens, UniProt P04629); test: Inhibition of partial length human TRKA expressed in mammalian system
Sequence of High affinity nerve growth factor receptor (P04629 whole entry): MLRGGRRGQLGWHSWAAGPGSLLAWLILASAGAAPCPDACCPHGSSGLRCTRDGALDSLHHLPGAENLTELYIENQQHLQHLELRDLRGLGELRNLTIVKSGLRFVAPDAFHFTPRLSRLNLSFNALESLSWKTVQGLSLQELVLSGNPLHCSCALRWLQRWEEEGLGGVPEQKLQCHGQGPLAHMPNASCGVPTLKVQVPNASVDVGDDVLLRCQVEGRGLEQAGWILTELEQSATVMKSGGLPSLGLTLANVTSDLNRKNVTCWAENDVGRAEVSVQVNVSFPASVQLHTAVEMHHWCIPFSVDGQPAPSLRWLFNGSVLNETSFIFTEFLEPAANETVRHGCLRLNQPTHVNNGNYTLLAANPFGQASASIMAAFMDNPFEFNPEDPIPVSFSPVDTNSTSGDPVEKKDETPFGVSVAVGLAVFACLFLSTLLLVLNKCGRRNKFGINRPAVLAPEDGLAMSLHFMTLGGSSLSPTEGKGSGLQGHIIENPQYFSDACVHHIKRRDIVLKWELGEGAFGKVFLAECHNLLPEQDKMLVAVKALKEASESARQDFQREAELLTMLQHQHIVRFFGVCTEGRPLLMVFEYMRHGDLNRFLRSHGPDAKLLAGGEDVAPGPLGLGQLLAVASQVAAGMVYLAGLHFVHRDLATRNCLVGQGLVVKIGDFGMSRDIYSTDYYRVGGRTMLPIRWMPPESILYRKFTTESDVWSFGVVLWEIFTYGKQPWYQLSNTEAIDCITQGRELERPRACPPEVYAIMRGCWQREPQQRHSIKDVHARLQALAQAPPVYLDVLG

[41] = Volume of distribution in steady state in cynomolgus monkey at 2 mg/kg, iv through bolus administration after 0.167 to 48 hrs by LC/MS/MS analysis; type: ADME, organism-based, Macaca fascicularis; conditions: in vivo, read-out: Vdss

Question: Which results are given for `Cc1c(-c2ccc(C(N)=O)c3[nH]c4cc(C(C)(C)O)ccc4c23)cccc1-n1cnc2ccccc2c1=O`?
Answer: IC50 [1]: 50 nM; IC50 [2]: 24 nM; AUC [3]: 21.2 µM·h; IC50 [4]: 13 nM; bioavailability [5]: 100%; IC50 [6]: 3190 nM; Activity (Mus musculus [7]): Dose-dependent effect; half-life [8]: 10.6 h; Papp B→A [9]: 12.2 ×10⁻⁶ cm/s; IC50 [10]: 370 nM; IC50 (Cytochrome P450 2B6): > 40000 nM; IC50 [11]: 110 nM; AUC [12]: 30.8 µM·h; bioavailability [13]: 100%; fraction unbound [14]: 0.006; solubility [15]: 60 µg/mL (≈ 119 µM); Tmax [16]: 2.7 h; IC50 (Cytochrome P450 3A4): > 40000 nM; Activity (Mus musculus [17]): Active; Cmax [18]: 3.8 µM; bioavailability [19]: 84%; Activity (Mus musculus [20]): 85 - 90%; Vd [21]: 3.2 L/kg; clearance [22]: 6.4 mL/min/kg; fraction unbound [23]: 0.01; Activity (Mus musculus [24]): Active; Papp [25]: 87.6 ×10⁻⁶ cm/s; clearance [26]: 4.9 mL/min/kg; Activity (Mus musculus [27]): Dose-dependent effect; IC50 (Cytochrome P450 1A2): > 40000 nM; bioavailability [28]: 94%; Activity (Mus musculus [29]): Dose-dependent effect; Activity (Mus musculus [30]): Dose-dependent effect; Activity (Mus musculus [31]): Active; Activity (Salmonella typhimurium): Non-Toxic; Papp [32]: 102 ×10⁻⁶ cm/s; Activity (Mus musculus [33]): Dose-dependent effect; Papp A→B [34]: < 1.5 ×10⁻⁶ cm/s; IC50 [35]: 150 nM; solubility [36]: 6 µg/mL (≈ 11.9 µM); Activity (Mus musculus [37]): Dose-dependent effect; IC50 [38]: 180 nM; AUC [39]: 14.2 µM·h; IC50 [40]: 30 nM; Vd [41]: 1.6 L/kg
